#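 Step 1: Grow cells in 96-well plates. Step 2: Expose to compound for 48 hours at 5 concentrations. Step 3: Interpolate endpoints linearly; if unreached, use highest concentration. The concentration for 50% growth inhibition is given as GI50. Definition used: TGI = concentration required for complete inhibition of growth.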
# What was measured:
# Assay in all cases: DTP human tumour cell line panel, 48 h
# [1] = test system: A549 NSCLC
# [2] = test system: SR leukemia
# [3] = test system: OVCAR-5 ovarian
# [4] = test system: CCRF-CEM leukemia
# [5] = test system: MOLT-4 leukemia
# [6] = test system: RXF 393 renal
# [7] = test system: SNB-19 CNS
# [8] = test system: UACC-257 melanoma
# [9] = test system: MCF7 breast
# [10] = test system: NCI-H226 lung
# [11] = test system: HL-60(TB) leukemia
# [12] = test system: IGROV1 ovarian
# [13] = test system: NCI-H522 lung
# [14] = test system: K-562 leukemia
# [15] = test system: TK-10 renal
# [16] = test system: COLO 205 colon
# [17] = test system: A498 renal
# [18] = test system: NCI/ADR-RES ovarian
# [19] = test system: NCI-H23 lung
# [20] = test system: U251 CNS
# [21] = test system: SK-MEL-2 melanoma
# [22] = test system: NCI-H460 lung
# [23] = test system: BT-549 breast
# [24] = test system: SF-539 CNS
# [25] = test system: MDA-MB-231 breast
# [26] = test system: CAKI-1 renal
# [27] = test system: MALME-3M melanoma
# [28] = test system: ACHN renal
# [29] = test system: HS 578T breast
# [30] = test system: DU-145 prostate
# [31] = test system: SK-MEL-28 melanoma
# [32] = test system: HCT-15 colon
# [33] = test system: SK-MEL-5 melanoma
# [34] = test system: SF-268 CNS
# [35] = test system: SF-295 CNS
# [36] = test system: HT29 colon
# [37] = test system: 786-0 renal
# [38] = test system: RPMI-8226 leukemia
# [39] = test system: T-47D breast
# [40] = test system: SNB-75 CNS
# [41] = test system: OVCAR-8 ovarian
# [42] = test system: LOX IMVI melanoma
# [43] = test system: KM12 colon
# [44] = test system: MDA-MB-435
# [45] = test system: UO-31 renal
# [46] = test system: UACC-62 melanoma
# [47] = test system: HOP-92 NSCLC
# [48] = test system: M14 melanoma
# [49] = test system: SK-OV-3 ovarian
# [50] = test system: PC-3 prostate
# [51] = test system: OVCAR-4 ovarian
# [52] = test system: HCT-116 colon
# [53] = test system: HOP-62 NSCLC
# [54] = test system: SN12C renal
# [55] = test system: HCC-2998 colon
# [56] = test system: OVCAR-3 ovarian
# [57] = test system: SW-620 colon
smiles,measurement,setting,value
CCN(Cc1cccnc1)c1ccc(CO)c(Cl)c1,GI50,[1],5.73 µM
same,TGI,[1],> 75.8 µM
same,GI50,[2],> 100 µM
same,TGI,[2],> 100 µM
same,GI50,[3],0.244 µM
same,TGI,[3],0.915 µM
same,GI50,[4],> 96 µM
same,TGI,[4],> 100 µM
same,GI50,[5],> 94.9 µM
same,TGI,[5],> 100 µM
same,TGI,[6],> 100 µM
same,GI50,[7],> 100 µM
same,TGI,[7],> 100 µM
same,GI50,[8],0.195 µM
same,TGI,[8],0.621 µM
same,GI50,[9],0.459 µM
same,TGI,[9],> 100 µM
same,GI50,[10],0.0885 µM
same,TGI,[10],0.269 µM
same,GI50,[11],22.6 µM
same,TGI,[11],> 100 µM
same,GI50,[12],0.241 µM
same,TGI,[12],1.12 µM
same,GI50,[13],> 100 µM
same,TGI,[13],> 100 µM
same,GI50,[14],5.58 µM
same,TGI,[14],> 100 µM
same,GI50,[15],0.12 µM
same,TGI,[15],0.333 µM
same,GI50,[16],1.42 µM
same,TGI,[16],5.33 µM
same,GI50,[17],0.0797 µM
same,TGI,[17],0.236 µM
same,GI50,[18],36.5 µM
same,TGI,[18],> 100 µM
same,GI50,[19],45 µM
same,TGI,[19],> 100 µM
same,GI50,[20],3.75 µM
same,TGI,[20],> 100 µM
same,GI50,[21],> 37 µM
same,TGI,[21],> 100 µM
same,GI50,[22],0.555 µM
same,TGI,[22],8.66 µM
same,GI50,[23],> 94.3 µM
same,TGI,[23],> 100 µM
same,GI50,[24],> 100 µM
same,TGI,[24],> 100 µM
same,GI50,[25],> 95.8 µM
same,TGI,[25],> 100 µM
same,GI50,[26],22.5 µM
same,TGI,[26],> 100 µM
same,GI50,[27],> 100 µM
same,TGI,[27],> 100 µM
same,GI50,[28],97.7 µM
same,TGI,[28],> 100 µM
same,GI50,[29],> 100 µM
same,TGI,[29],> 100 µM
same,GI50,[30],> 81.3 µM
same,TGI,[30],> 100 µM
same,GI50,[31],> 100 µM
same,TGI,[31],> 100 µM
same,GI50,[32],> 88.8 µM
same,TGI,[32],> 100 µM
same,GI50,[33],15.1 µM
same,TGI,[33],> 60.2 µM
same,GI50,[34],> 100 µM
same,TGI,[34],> 100 µM
same,GI50,[35],1.06 µM
same,TGI,[35],> 100 µM
same,GI50,[36],4.67 µM
same,TGI,[36],> 100 µM
same,GI50,[37],> 45.5 µM
same,TGI,[37],> 100 µM
same,GI50,[38],11.1 µM
same,TGI,[38],> 100 µM
same,GI50,[39],0.269 µM
same,TGI,[39],1.54 µM
same,GI50,[40],65.9 µM
same,TGI,[40],> 100 µM
same,GI50,[41],34.9 µM
same,TGI,[41],> 100 µM
same,GI50,[42],> 100 µM
same,TGI,[42],> 100 µM
same,GI50,[43],> 100 µM
same,TGI,[43],> 100 µM
same,GI50,[44],> 100 µM
same,TGI,[44],> 100 µM
same,GI50,[45],20 µM
same,TGI,[45],> 100 µM
same,GI50,[46],0.289 µM
same,TGI,[46],2.05 µM
same,GI50,[47],3.21 µM
same,TGI,[47],66.4 µM
same,GI50,[48],> 100 µM
same,TGI,[48],> 100 µM
same,GI50,[49],23.5 µM
same,TGI,[49],> 100 µM
same,GI50,[50],58.4 µM
same,TGI,[50],> 100 µM
same,GI50,[51],0.433 µM
same,TGI,[51],4.63 µM
same,GI50,[52],0.298 µM
same,TGI,[52],> 100 µM
same,GI50,[53],7.3 µM
same,TGI,[53],> 100 µM
same,GI50,[54],> 87.5 µM
same,TGI,[54],> 100 µM
same,GI50,[55],10.4 µM
same,TGI,[55],> 100 µM
same,GI50,[56],1.13 µM
same,TGI,[56],5.36 µM
same,GI50,[57],3.66 µM
same,TGI,[57],> 100 µM

# — PubChem BioAssay (NCI)
